Consider five molecules from PMC5494507, “γ‐Secretase inhibitors in cancer clinical trials are pharmacologically and functionally distinct” (EMBO Molecular Medicine, 2017).

The subject of experiment [1] is full‐length APP. The experiment is described as follows: Cell-based γ-secretase cleavage assay, full-length APP stably overexpressing cells (Aβ ELISA). Conditions: for IC50: full-length APP stably overexpressing cells, Aβ ELISA. The protocol:
(§1) We next tested all GSIs on cAPPC100sub and full‐length APP stably overexpressing cells. […] The low‐dose potentiation of γ‐secretase cleavage was further mechanistically probed using in vitro assays with recombinant substrates and IP‐MS.
(§2) H4 cells were cultured in Opti‐mem media (Thermo‐Fisher) supplemented with Hyclone 6% fetal bovine serum (GE, Logan, Utah, USA) and 1% penicillin/streptomycin (Life Technologies, Grand Island, NY, USA). pCDNA3.1 plasmids containing the substrate cDNAs were transfected into H4 cells using FuGENE HD reagent (Madison, WI, USA). Stable cell lines were established using G418 selection. […] Cells and conditioned media were used for WB, IP, and ELISA.
(§3) Sandwich ELISAs used for Aβ detection were performed as previously described (Murphy et al, 1999; Ran et al, 2014). Briefly, Aβ and Aβ‐like peptides in conditioned media were captured with Ab5 antibody and detected with horseradish peroxidase labeled mAb 4G8 (Biolegend). Synthetic Aβ1‐40 was used as standard. All ELISAs were developed with TMB substrate (KPL, Gaithersburg, Maryland, USA). Bis‐Tris precast gels (Biorad, Hercules, CA, USA) were used for all SDS–PAGE. Monoclonal anti‐FLAG M2 antibody (Sigma) and Aβ1‐16 antibody 6E10 (Covance) were used for Western blotting at 1:1,000 dilution. Anti‐CD74 In‐1 antibody (BD Bioscience, San Jose, CA, USA) was used for A20 cell lysate Western blotting at dilution of 1:1,000. MDA‐MB‐231 cell extracts were prepared by lysing cells in RIPA buffer containing protease and phosphatase inhibitors. The lysates were kept on ice for 30 min and vortexed every 10 min, and then centrifuged at 4°C for 10 min at 1,000 g. The supernatants were collected, and protein concentrations were determined by Bradford Assay. Pan‐NOTCH1 antibody (C‐20) (Santa Cruz Biotechnology) and cleaved NOTCH1 (Val1744) antibody ([…]) were used at 1:500 and 1:100 dilution in the test of endogenous NOTCH1 inhibition with β‐actin expression used as loading control. β‐actin antibody was used at 1:1,000 dilution (Sigma). Band intensities normalized for actin using densitometry analysis with ImageJ Software (NIH, USA).

The test system of experiment [2] is cAPPC100sub. The experiment is described as follows: Cell-based γ-secretase cleavage assay, cAPPC100sub stably overexpressing cells (Aβ ELISA). Conditions: for low-dose potentiation of cleavage, cAPPC100sub: cAPPC100sub overexpressing cells.
Excerpt: as §1
(§4) For the cell‐based assay, all substrates contain a human NOTCH4 signal peptide sequence ([…]), amyloid β peptide (Aβ1–25/K16A) epitope tag followed by the juxtamembrane region (JMD) of the given substrate and a FLAG tag ([…]) at the COOH‐terminal. K16A mutant was created to decrease potential α‐secretase cleavage. The cDNAs were generated by gene synthesis conducted by Genscript. A schematic representation of the substrates is provided in Fig 4A, and sequences of the cDNAs and the proteins are provided in Appendix Fig S6. For clarity, these substrates are referred to as cell‐based assay substrates (e.g., NOTCH1 is cNOTCH1sub). Substrate cDNAs were cloned into pCDNA3.1 (Invitrogen, Carlsbad, CA, USA) for expression in H4 cells (ATCC, Manassas, VA).
as §2, §3
In general terms: An ELISA detects its analyte on a solid surface through an enzyme-linked reagent.

Experiment [3] relates to NOTCH. The arrangement: method as in ref Appendix Table S1 (Gavai et al, 2015; Cook et al, 2010; Krop et al, 2012; Wei et al, 2010; Luistro et al, 2009; Mitani et al, 2012). Conditions: ref Appendix Table S1 (Gavai et al, 2015; Cook et al, 2010; Krop et al, 2012; Wei et al, 2010; Luistro et al, 2009; Mitani et al, 2012); read-out: Reported IC50s NOTCH; cited from earlier work.

Experiment [4] addresses T1, SPPL2a (Mus musculus, UniProt Q9JJF9).
T1 construct: To verify the finding in a non‐overexpressing cell line; endogenous in cells; host or cells: A20 (ATCC TIB-208)
T1 sequence (Q9JJF9 26-523): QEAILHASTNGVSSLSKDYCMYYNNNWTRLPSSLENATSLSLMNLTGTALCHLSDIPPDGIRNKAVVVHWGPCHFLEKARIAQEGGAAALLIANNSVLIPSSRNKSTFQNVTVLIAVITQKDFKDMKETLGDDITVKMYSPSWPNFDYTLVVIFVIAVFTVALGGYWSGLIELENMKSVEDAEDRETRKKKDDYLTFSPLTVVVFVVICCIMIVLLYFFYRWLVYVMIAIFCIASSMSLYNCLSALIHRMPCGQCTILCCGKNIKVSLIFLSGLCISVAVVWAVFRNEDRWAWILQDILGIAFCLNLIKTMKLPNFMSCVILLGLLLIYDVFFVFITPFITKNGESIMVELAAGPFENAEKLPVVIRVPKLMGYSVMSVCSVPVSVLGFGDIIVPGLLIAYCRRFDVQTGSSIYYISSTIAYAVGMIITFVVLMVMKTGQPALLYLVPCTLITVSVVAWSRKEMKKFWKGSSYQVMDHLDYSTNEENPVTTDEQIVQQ
Kind of experiment: Endogenous CD74 P8 turnover in A20 cells (Western blot, In-1 antibody), biomarker for SPPL2a cleavage. It counts as cell-based. Conditions: 16 h. The protocol:
To verify the finding in a non‐overexpressing cell line, we applied the inhibitors to the mouse B lymphocyte cell line A20 (ATCC TIB‐208).
SPPL2a, SPPL2b, SPP, and chimeric substrate FBA were generated as previously described (Ran et al, 2015). A20 cells (TIB‐208; ATCC, Manassas, VA, USA) were cultured in RPMI‐1640 medium (ATCC) supplied with 10% fetal bovine serum, 1% penicillin/streptomycin, and 0.05 mM 2‐mercaptoethanol (Life Technologies). Various concentrations of GSIs and (ZLL)2‐ketone as indicated in figures were applied to transfected HEK 293t cells at 70–90% confluence or A20 cells at a density of 5 × 10^5 cells/ml with fresh media in 48‐well format for 16 h. Cells and conditioned media were used for WB, IP, and ELISA.
as §3

The subject of experiment [5] is cNOTCH4sub. Kind of experiment: Cell-based γ-secretase cleavage assay, cNOTCH4sub in H4 cells (Aβ-like peptide ELISA). Details: species or system human. Conditions: Aβ-like peptide in media, GSI overnight. The protocol:
Using these cell‐based γ‐secretase cleavage assays, we systematically investigated the substrate inhibition profile of BMS‐906024, MK‐0752, PF‐308414, RO4929097, Semagacestat, and DAPT. We treated H4 cells stably expressing cNOTCH1‐4sub with 4 pM to 10 μM of GSIs (Fig 5A and Table 2) and measured the Aβ‐like peptide secreted into the media.
as §4, §2, §3

[6] abbreviates: stably overexpressing cells, Aβ ELISA, read-out: IC50 cC100sub.
Where [7] appears, read: value in parentheses, read-out: IC50 cC100sub, from curves excluding the Aβ level > 120%.

Structures are written as SMILES. Where two headings read alike, the source gives them in different places.

As for `CC(C)[C@H](O)C(=O)N[C@@H](C)C(=O)N[C@@H]1C(=O)N(C)CCc2ccccc21` [Semagacestat], the IC50 in experiment [1] is 24.5 nM; in experiment [2] (setting [6]) it was 175 nM; in experiment [2] (setting [7]) it was 105 nM; in experiment [3], 14.1 nM; in experiment [5] it was 46 nM. Further, the “low-dose potentiation of cleavage, cAPPC100sub” value in experiment [2] was “low‐dose potentiation of cleavage was observed”. In addition, in experiment [4] (1,000 nM), the “stabilization of CD74 8 kDa NTF P8” value is reported as “weak stabilization”.
As for `O=C(O)CC[C@H]1CC[C@@](c2cc(F)ccc2F)(S(=O)(=O)c2ccc(Cl)cc2)CC1` [MK‐0752], the IC50 in experiment [1] was 9.03 nM; in experiment [2] (setting [6]) it was 336 nM; in experiment [2] (setting [7]), 154 nM; in experiment [3] it was 55 nM; in experiment [5], 191 nM. Also, the “low-dose potentiation of cleavage, cAPPC100sub” value in experiment [2] is on record as “low‐dose potentiation of cleavage was observed”. Further, the “stabilization of CD74 8 kDa NTF P8” value in experiment [4] (at the tested dose) is on record as “did not show stabilization activity”.
With `CC(C)(C(=O)NCC(F)(F)C(F)(F)F)C(=O)N[C@@H]1C(=O)Nc2ccccc2-c2ccccc21` [RO4929097], the “low-dose potentiation of cleavage, APP” value in experiment [1] (full-length APP overexpressing cells) is on record as “low‐dose potentiation of cleavage was observed”. For the same molecule, the IC50 in experiment [1] was 1.41 nM; in experiment [2] (setting [6]) it was 26.6 nM; in experiment [2] (setting [7]) it was 24 nM; in experiment [3], 5 nM; in experiment [5], 3.4 nM. Further, the “low-dose potentiation of cleavage, cAPPC100sub” value in experiment [2] is reported as “low‐dose potentiation of cleavage was observed”. Besides, in experiment [4] (40 nM), the “stabilization of CD74 8 kDa NTF P8” value is “greatly stabilized”.
Consider `CCC[C@H](N[C@H]1CCc2cc(F)cc(F)c2C1)C(=O)Nc1cn(C(C)(C)CNCC(C)(C)C)cn1` [PF‐3084014], for which the IC50 in experiment [1] is 0.07 nM; in experiment [2] (setting [6]) it was 2.47 nM; in experiment [2] (setting [7]), 1.34 nM; in experiment [3], 13.3 nM; in experiment [5], 0.81 nM. Moreover, the “stabilization of CD74 8 kDa NTF P8” value in experiment [4] (40 nM) is recorded as “slightly stabilized”.
For the molecule `CN1C(=O)[C@@H](NC(=O)[C@H](CCC(F)(F)F)[C@H](CCC(F)(F)F)C(N)=O)N=C(c2ccccc2)c2ccccc21` [BMS‐906024], the IC50 was 0.05 nM in experiment [1], 1.46 nM in experiment [2] (setting [6]), 0.7 to 3.4 nM in experiment [3] and 0.71 nM in experiment [5]. Also, the “increase of Aβ production from the cAPPC100sub” value in experiment [2] (1–4 pM BMS‐906024) is reported as ~ 1.5 fold. Moreover, the “stabilization of CD74 8 kDa NTF P8” value in experiment [4] (40 nM) is “greatly stabilized”.
